Like-named read-outs stand apart in the source and are kept apart here.
Tests used:
[1] = FAERS analysis of reported rhabdomyolysis cases per suspect drug; conditions: for Number of Death Cases (n = 576): monotherapy rhabdomyolysis cases with fatal outcome
Experimental: Due to the quarterly updating of the database by the FDA, the searches were performed using the term “rhabdomyolysis” on one occasion to ensure the data were extracted at that specified period. All individual files were downloaded and saved from this one timepoint to specify the analysis period used in this study. Further refinement was performed using Microsoft Excel to extract only cases where the suspect drug was reported as a monotherapy, using the generic name of the suspect drugs. To ensure data accuracy, any case reported by a consumer or company underwent further checks to ensure it had not been previously reported by a healthcare provider, by confirming that no duplication of case ID was present.

[2] = system: HSKMDC; experiment: Mitochondrial stress test (Seahorse XFe96 respirometry) in HSKMDC; type: cell-based, human; conditions: acute injection
Experimental: On the day of the assay, for the analysis of the acute injection of the drug on differentiated myotubes, the differentiation media was replaced with 175 µL of unbuffered Seahorse Assay media supplemented with 25 mM of glucose, 4 mM of L-glutamine, 1 mM of sodium pyruvate, and 5 mM of HEPES pre-warmed to 37 °C, then incubated in a CO2 free incubator at 37 °C for 1 h. Alternately, in the pre-treatment strategy, differentiated myotubes were pre-treated with the drug for 5 h in differentiation medium, then transferred to a CO2-free incubator at 37 °C for 1 h. Next, the differentiation media were replaced with 175 µL of unbuffered Seahorse Assay media supplemented with the constituents stated above. Briefly, using the XF^e96 instrument (Seahorse extracellular flux analyser, Agilent Technologies, Santa Clara, CA, USA), the oxygen partial pressure in each well was allowed to reach equilibrium for 10 min. The oxygen consumption rate (OCR) was measured three times at baseline; then, there was a 3 min mix for each measurement followed by a 3 min wait. […] In the acute injection method, the drug injection was only performed at the end of the basal measurement cycles, followed by the mitochondrial inhibitors described above. The duration of the assay was 120 min (acute injection) and 90 min (pre-treatment strategy). From each mitochondrial stress test was determined the OCR parameters of non-mitochondrial respiration (NMR = lowest measurement after rotenone/antimycin A); basal respiration (BR = last measurement before oligomycin − NMR); proton-leak (PL = BR − lowest respiration after oligomycin); ATP-linked respiration (ALR = BR − PL); maximum respiratory capacity (MRC = highest measurement after FCCP − NMR); and spare respiratory capacity (SRC = MRC − BR).

[3] = system: L6 cells; conditions: 6 h exposure
Experimental: The mitochondrial stress test allowed confirmation of mitotoxicity and further identification of the specific mechanisms through quantification of OXPHOS parameters: basal respiration (BR), ATP-linked respiration (ALR), and spare respiratory capacity (SRC). On the day of the assay, for the analysis of the acute injection of the drug on differentiated myotubes, the differentiation media was replaced with 175 µL of unbuffered Seahorse Assay media supplemented with 25 mM of glucose, 4 mM of L-glutamine, 1 mM of sodium pyruvate, and 5 mM of HEPES pre-warmed to 37 °C, then incubated in a CO2 free incubator at 37 °C for 1 h. Alternately, in the pre-treatment strategy, differentiated myotubes were pre-treated with the drug for 5 h in differentiation medium, then transferred to a CO2-free incubator at 37 °C for 1 h. Next, the differentiation media were replaced with 175 µL of unbuffered Seahorse Assay media supplemented with the constituents stated above. Briefly, using the XF^e96 instrument (Seahorse extracellular flux analyser, Agilent Technologies, Santa Clara, CA, USA), the oxygen partial pressure in each well was allowed to reach equilibrium for 10 min. The oxygen consumption rate (OCR) was measured three times at baseline; then, there was a 3 min mix for each measurement followed by a 3 min wait. […] In the acute injection method, the drug injection was only performed at the end of the basal measurement cycles, followed by the mitochondrial inhibitors described above. The duration of the assay was 120 min (acute injection) and 90 min (pre-treatment strategy). From each mitochondrial stress test was determined the OCR parameters of non-mitochondrial respiration (NMR = lowest measurement after rotenone/antimycin A); basal respiration (BR = last measurement before oligomycin − NMR); proton-leak (PL = BR − lowest respiration after oligomycin); ATP-linked respiration (ALR = BR − PL); maximum respiratory capacity (MRC = highest measurement after FCCP − NMR); and spare respiratory capacity (SRC = MRC − BR) [42, 43].

[4] = system: L6 cells; experiment: Acute metabolic switch assay (cellular ATP content, glucose vs galactose media) in L6 differentiated myotubes; conditions: for Mitotoxicity classification in acute metabolic switch assay: based on IC50-ATPglu vs IC50-ATPgal; for IC50: Rattus norvegicus, L6, 2 h
Experimental: They were then seeded into collagen-coated wells (50 µg/mL in 0.02 M of acetic acid) at a density of 16,000 cells/100 μL/well (96 well plates) and 10,000 cells/100 μL/well (XF 96-well cell culture microplates). The cells were next incubated for 24 h in complete growth medium to promote adherence, after which the growth medium was removed and the cells washed twice with 1× HBSS. The L6 myoblasts were then cultured in differentiation medium consisting of high-glucose DMEM (25 mM) supplemented with L-glutamine (4 mM), sodium pyruvate (1 mM), HEPES (5 mM), and horse serum (2% v/v). Fresh differentiation medium was provided every 48 h for 7 days.
(§1) On the day of the assay, the media on the differentiated myotubes were replaced with either serum-free high-glucose (DMEM, 25 mM of glucose, 4 mM of L-glutamine, 1 mM of sodium pyruvate, and 5 mM of HEPES) or serum-free galactose (DMEM, 10 mM of galactose, 6 mM of L-glutamine, 1 mM of sodium pyruvate, and 5 mM of HEPES) media (100 µL) for 2 h (37 °C, 5% CO2). The glucose and galactose media were removed and replaced with drug-dosing solutions in either glucose or galactose media as appropriate, before incubation (2 h, 37 °C, 5% CO2). […] Vehicle control was included in each experiment.
(§2) The cellular ATP content was measured using a bioluminescence assay kit, alongside the concomitant measurement of protein using a bicinchoninic acid (BCA) assay kit to normalise ATP data to the total protein. Briefly, the cells were lysed using ATP lysis buffer (50 µL/well) and the plate was shaken (5 min). According to the manufacturer’s instructions, 40 µL of ATP reagent was added to each well containing 5 µL of cell lysate in a white 96-well plate. The […] luminescence signal was measured immediately using a plate reader (Varioskan, Thermo Scientific, Schaumburg, IL USA).

[5] = system: primary human skeletal muscle-derived cells (HSKMDC); experiment: cells; type: cell-based; conditions: 2 h exposure; for IC50: Homo sapiens, Myotube, mean ± S.D. (n = 3)
Experimental: (§3) HSKMDC myoblasts were collected by trypsinisation using trypsin-EDTA (0.05%) upon reaching 50% confluence and seeded into collagen-coated wells, at a density of 20,000 cells/100 μL/well (96 well plates) and 25,000 cells/100 μL/well (XF 96-well cell culture microplates). After 24 h, the cells were washed twice with 1× PBS (-/-), and growth media were replaced with differentiation medium containing DMEM low-glucose media (glucose 5 mM), L-glutamine (4 mM), sodium pyruvate (1 mM) supplemented with 2% (v/v) horse serum, and (10 nM) human insulin. The medium was refreshed every 48 h for 5 days.
as §1, §2

[6] = system: primary human skeletal muscle-derived cells (HSKMDC); experiment: cells; type: cell-based; conditions: for IC50: Homo sapiens, Myotube, 2 h
Experimental: as §3, §1
Cytotoxicity was detected using a lactate dehydrogenase (LDH) assay kit. Briefly, according to the manufacturers’ instructions, 25 µL of the supernatant and 10 µL of cell lysate were incubated with 50 µL of LDH reagent for 30 min in the dark. Samples were read at 490 nm using a plate reader.

SMILES: CC(C)OC(=O)C(C)(C)Oc1ccc(C(=O)c2ccc(Cl)cc2)cc1 [Fenofibrate]
- (%) of total rhabdomyolysis cases ([1]; FAERS 2004 to 31 March 2020, of 27,140 cases): 1.7%
- Number of Rhabdomyolysis Cases ([1]; FAERS 2004 to 31 March 2020, total 27,140 rhabdomyolysis cases, some cases with more than one suspected drug): 449
- Number of Death Cases (n = 576) [1]: 6
- (%) of monotherapy rhabdomyolysis cases ([1]; monotherapy, of 6583 cases): 1.9%
- Number of Rhabdomyolysis Cases (n = 6583) ([1]; suspected drug reported as a single drug used (monotherapy), FAERS 2004 to 31 March 2020): 126
- Classification from pattern of changes in BR, ALR and SRC [2]: direct inhibitors of the electron transport chain
- Concentration at which significant reduction of ATP-linked respiration was first observed [2]: 3.6 µM
- Classification from pattern of changes in BR, ALR and SRC [3]: direct inhibitors of the electron transport chain
- Mitotoxicity classification in acute metabolic switch assay ([4]; L6 cells, 2 h exposure): containing a mitochondrial liability

SMILES: Cc1nc2n(c(=O)c1CCN1CCC(c3noc4cc(F)ccc34)CC1)CCCC2 [Risperidone]
- Number of Death Cases (n = 576) [1]: 7
- Classification from pattern of changes in BR, ALR and SRC [2]: direct inhibitors of the electron transport chain
- Concentration at which significant reduction of ATP-linked respiration was first observed [2]: 11 µM
- Classification from pattern of changes in BR, ALR and SRC [3]: direct inhibitors of the electron transport chain
- Mitotoxicity classification in acute metabolic switch assay ([4]; L6 cells, 2 h exposure): containing a mitochondrial liability

SMILES: C=C(C)[C@H]1Cc2c(ccc3c2O[C@@H]2COc4cc(OC)c(OC)cc4[C@@H]2C3=O)O1 [Rotenone]
- IC50-ATPglu/IC50-ATPgal ([4]; L6 cells, 2 h exposure, […]): >138.9 (<0.0001)
- IC50 ([4]; read-out: ATP IC50 Galactose): 36 ± 8 nM
- IC50 ([4]; read-out: ATP IC50 Glucose): > 5000 nM
- IC50-ATPglu/IC50-ATPgal [5]: >318.4 (<0.0001)
- IC50-ATPglu/IC50-ATPgal ([5]; listed as rotenone): > 318
- IC50 ([5]; galactose serum-free media, read-out: ATP IC50 Galactose): 16 ± 7 nM
- IC50 ([5]; glucose serum-free media, read-out: ATP IC50 Glucose): > 5000 nM
- IC50-LDH gal/ IC50-ATP al ([6]; HSKMDC, 2 h exposure, galactose media): >312.5
- IC50 ([6]; read-out: LDH IC50 Galactose): > 5000 nM
- IC50 ([6]; read-out: LDH IC50 Glucose): > 5000 nM

From publication PMC10216605, “Developing In Vitro Models to Define the Role of Direct Mitochondrial Toxicity in Frequently Reported Drug-Induced Rhabdomyolysis” (Biomedicines, 2023)
